Measurements published in ChEMBL document CHEMBL1134017, “Heterocycle-based MMP inhibitors with P2' substituents” (Bioorg Med Chem Lett, 2001).

Legend:
Neutrophil collagenase = Neutrophil collagenase (Homo sapiens, UniProt P22894)
Description: Inhibition of Matrix metalloprotease-8

Matrilysin [1] = target: T1, Matrilysin (Homo sapiens, UniProt P09237)
T1 sequence (P09237 whole entry): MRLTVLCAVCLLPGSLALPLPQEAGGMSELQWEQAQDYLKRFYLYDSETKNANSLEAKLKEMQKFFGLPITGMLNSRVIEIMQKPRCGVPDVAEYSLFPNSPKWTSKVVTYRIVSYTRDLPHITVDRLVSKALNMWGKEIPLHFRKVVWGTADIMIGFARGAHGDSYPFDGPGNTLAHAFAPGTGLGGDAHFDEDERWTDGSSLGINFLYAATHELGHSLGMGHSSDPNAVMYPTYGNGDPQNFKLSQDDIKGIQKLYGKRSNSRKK
Description: Inhibition of Matrix metalloprotease-7

[2] = target: Matrix metalloproteinase-9 (Homo sapiens, UniProt P14780)
Chain of Matrix metalloproteinase-9 (P14780 whole entry): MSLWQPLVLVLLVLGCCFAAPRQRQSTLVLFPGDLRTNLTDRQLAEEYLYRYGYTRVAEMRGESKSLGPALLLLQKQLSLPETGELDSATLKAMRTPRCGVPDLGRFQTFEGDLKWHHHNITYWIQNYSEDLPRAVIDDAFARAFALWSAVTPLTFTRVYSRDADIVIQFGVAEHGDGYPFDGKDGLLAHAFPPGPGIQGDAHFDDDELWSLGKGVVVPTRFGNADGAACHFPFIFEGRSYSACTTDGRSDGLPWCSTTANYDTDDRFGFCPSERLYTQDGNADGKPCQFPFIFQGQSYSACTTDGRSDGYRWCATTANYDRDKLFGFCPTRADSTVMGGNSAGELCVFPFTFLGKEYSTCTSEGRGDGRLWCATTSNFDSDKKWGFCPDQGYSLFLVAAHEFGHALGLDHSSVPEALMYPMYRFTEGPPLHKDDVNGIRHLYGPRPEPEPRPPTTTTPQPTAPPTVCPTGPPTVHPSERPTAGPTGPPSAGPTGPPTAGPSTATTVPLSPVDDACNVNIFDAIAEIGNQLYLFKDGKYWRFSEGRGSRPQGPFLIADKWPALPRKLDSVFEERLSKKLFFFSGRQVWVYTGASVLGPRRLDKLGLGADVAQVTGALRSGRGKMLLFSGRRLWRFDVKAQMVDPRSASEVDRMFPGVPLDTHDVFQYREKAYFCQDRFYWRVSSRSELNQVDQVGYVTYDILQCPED
Description: Inhibition of Matrix metalloprotease-9

Interstitial collagenase = target: T2, Interstitial collagenase (Homo sapiens, UniProt P03956)
T2 sequence (P03956 whole entry): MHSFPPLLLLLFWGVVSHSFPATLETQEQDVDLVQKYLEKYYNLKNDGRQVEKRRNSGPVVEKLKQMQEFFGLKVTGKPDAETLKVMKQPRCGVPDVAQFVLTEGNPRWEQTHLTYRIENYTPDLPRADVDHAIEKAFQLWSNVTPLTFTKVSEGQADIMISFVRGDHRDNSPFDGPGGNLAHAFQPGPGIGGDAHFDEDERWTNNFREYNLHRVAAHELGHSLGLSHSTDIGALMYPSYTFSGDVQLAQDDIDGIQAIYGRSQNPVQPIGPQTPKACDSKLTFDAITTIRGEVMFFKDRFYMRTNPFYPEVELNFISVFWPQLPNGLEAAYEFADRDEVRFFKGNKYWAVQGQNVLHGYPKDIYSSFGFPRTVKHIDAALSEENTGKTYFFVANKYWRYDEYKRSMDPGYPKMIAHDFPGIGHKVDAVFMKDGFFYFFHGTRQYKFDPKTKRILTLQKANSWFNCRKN
Description: Inhibition of human Matrix metalloprotease-1

Collagenase 3 = Collagenase 3 (Rattus norvegicus, UniProt P23097)
Description: Inhibition of Matrix metalloprotease-13

Stromelysin-1 = Stromelysin-1 (Homo sapiens, UniProt P08254)
Chain of Stromelysin-1 (P08254 whole entry): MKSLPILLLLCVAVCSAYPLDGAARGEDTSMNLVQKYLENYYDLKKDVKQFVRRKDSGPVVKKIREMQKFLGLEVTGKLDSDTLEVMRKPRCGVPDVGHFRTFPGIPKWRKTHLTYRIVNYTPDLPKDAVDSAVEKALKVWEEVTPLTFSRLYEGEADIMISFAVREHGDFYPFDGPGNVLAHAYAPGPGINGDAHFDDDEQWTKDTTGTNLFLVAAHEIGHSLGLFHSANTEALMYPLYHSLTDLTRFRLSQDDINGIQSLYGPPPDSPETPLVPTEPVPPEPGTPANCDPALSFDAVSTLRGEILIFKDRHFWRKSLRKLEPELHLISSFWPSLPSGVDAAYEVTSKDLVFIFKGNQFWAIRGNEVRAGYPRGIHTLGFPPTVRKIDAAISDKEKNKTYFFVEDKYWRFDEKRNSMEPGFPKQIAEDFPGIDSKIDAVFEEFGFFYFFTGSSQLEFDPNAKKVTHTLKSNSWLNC
Description: Inhibition of Matrix metalloprotease-3

Matrilysin [3] = target: T1, Matrilysin; remark: listed apart in the source
Description: Inhibition of Matrix metalloprotease-7

Chain of Neutrophil collagenase (P22894 whole entry): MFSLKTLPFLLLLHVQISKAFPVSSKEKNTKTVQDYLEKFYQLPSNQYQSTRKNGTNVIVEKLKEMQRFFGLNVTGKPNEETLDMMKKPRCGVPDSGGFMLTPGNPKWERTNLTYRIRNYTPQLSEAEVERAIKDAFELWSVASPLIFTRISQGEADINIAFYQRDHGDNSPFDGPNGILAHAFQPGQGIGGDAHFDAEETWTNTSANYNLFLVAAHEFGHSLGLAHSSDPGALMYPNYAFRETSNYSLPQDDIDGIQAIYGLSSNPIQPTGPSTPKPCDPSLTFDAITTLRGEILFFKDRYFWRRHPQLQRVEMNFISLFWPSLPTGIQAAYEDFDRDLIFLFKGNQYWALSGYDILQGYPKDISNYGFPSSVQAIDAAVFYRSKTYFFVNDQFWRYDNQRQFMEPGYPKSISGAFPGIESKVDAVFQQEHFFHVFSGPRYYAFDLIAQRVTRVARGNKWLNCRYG

Compound	IC50 (Neutrophil collagenase) [nM]	IC50 (Matrilysin [1]) [nM]	IC50 [2] [nM]	IC50 (Interstitial collagenase) [nM]	IC50 (Collagenase 3) [nM]	IC50 (Stromelysin-1) [nM]	IC50 (Matrilysin [3]) [nM]
COc1ccc(S(=O)(=O)N2CN(C3CCCCC3)C(=O)C[C@@H]2C(=O)NO)cc1	2.8	776	3.3	465	0.75		
COCCN1CN(S(=O)(=O)c2ccc(OC)cc2)[C@@H](C(=O)NO)CC1=O	102	10000	52.5	696		180	
COc1ccc(S(=O)(=O)N2CC[C@H](C(=O)NO)N(S(=O)(=O)c3ccc(OC)cc3)CC2)cc1	1.8			28.9	0.84	6.3	905
COc1ccc(S(=O)(=O)N2CN(Cc3ccccc3)C(=O)C[C@@H]2C(=O)NO)cc1	6.4	> 10000	6.8	22.2			
COc1ccc(S(=O)(=O)N2CCN(Cc3ccccc3)C(=O)C[C@@H]2C(=O)NO)cc1	1.5	88	1	13.6		3.3	
COc1ccc(S(=O)(=O)N2CN(C(C)(C)C)C(=O)C[C@@H]2C(=O)NO)cc1	1.5	909	1.1	320	0.34		
COc1ccc(S(=O)(=O)N2CCN(S(=O)(=O)c3cn(C)cn3)CC[C@@H]2C(=O)NO)cc1	6.6		5.5	346	2.4	39.2	2780
COc1ccc(S(=O)(=O)N2CCN(C(C)C)C(=O)C[C@@H]2C(=O)NO)cc1	3.7	369	4.1	22	1.9	6.5	
COc1ccc(S(=O)(=O)N2CCN(C(=O)OCc3ccccc3)CC[C@@H]2C(=O)NO)cc1	3.3		1.8	97	2.1	14	737
COc1ccc(S(=O)(=O)N2CN(C)C(=O)C[C@@H]2C(=O)NO)cc1	47.3	> 10000	24.1	2200	7.9		
COc1ccc(S(=O)(=O)N2CN(C(C)C)C(=O)C[C@@H]2C(=O)NO)cc1	6.3	3460	4.2	643	2.9		
COc1ccc(S(=O)(=O)N2C[C@@H]3CCCN3C(=O)C[C@@H]2C(=O)NO)cc1				1.2	2	3.4	
